Source: patent US6399633B1, “Use of 4-H-1-benzopryan-4-one derivatives as inhibitors of smooth muscle cell proliferation” (priority 1999, dated 2002)
“Also recorded” adds a separate entry of the source. Like-named read-outs stand apart in the source and are kept apart here.

Tests used:
[1] = tested on: neointimal formation; conditions: instilled into the carotid artery at the time of injury; cited from earlier work
[2] = tested on: Erk1 (p44 MAP kinase) and Erk2 (p42 MAP kinase); assay: Western blot of phosphorylated Erk1/Erk2 in HASMC; format: cell-based, human; conditions: growth factors 30 min
Experimental: (§1) Western blot analysis—Quiescent HASMC were treated in the presence or absence of growth factors and/or flavopiridol as indicated. Western blot analysis was performed as previously described^18. The primary antibodies were: a polyclonal anti-human cyclin D1 antibody (M-20, Santa Cruz), a monoclonal anti-human proliferating cell nuclear antigen (PCNA) antibody (PC10, Sigma), a phosphorylation-specific p44/42 (Erk1/Erk2) MAP kinase monoclonal antibody (New England Biolabs), and a monoclonal anti-Rb antibody (G3-245, Pharmigen), which recognizes the phosphorylated (pRb) and highly phosphorylated (ppRb) Rb species. For immunoblotting studies, experiments were repeated at least three times.

[3] = tested on: Erk1 (p44 MAP kinase) and Erk2 (p42 MAP kinase); assay: In-gel kinase assay (myelin basic protein) in HASMC; format: cell-based, human; conditions: growth factors 30 min
Experimental: In-gel kinase assay—Quiescent HASMC were treated with growth factors for 30 min and total cell lysates were prepared as described for Western blotting. In some experiments, HASMC were pretreated for 60 min with 30 μmol/L PD98059, flavopiridol, or vehicle. Equal amounts of proteins (50 μg/lane) were resolved on a polyacrylamide gel that was copolymerized with 350 μg/ml myelin basic protein. The gel was treated with [γ-^32P]ATP and autoradiography was performed as described^19.

[4] = tested on: Human aortic smooth muscle cells (HASMC); assay: Cell proliferation ELISA (BrdU incorporation); format: cell-based; conditions: flavopiridol 75 nmol/L; bFGF- and thrombin-induced
Experimental: Cell culture—Human aortic smooth muscle cells (HASMC) were obtained from Clonetics and were cultured as previously described^18. Cells were used at passages 5-9. Prior to performing experiments, cells were growth-arrested at 80% confluence for 48 h with medium containing 0.2% fetal bovine serum. Cell proliferation ELISA—Cell proliferation was measured by ELISA (Amersham Life Science). HASMC were grown in gelatin-coated 96-well plates and made quiescent. Cells were treated with 10 ng/ml bFGF, 2 U/ml thrombin, or vehicle for 24 h. Flavopiridol (75 nmol/L) was administered 1 h prior to growth factor treatment. 5-Bromo-2′-deoxyuridine (BrdU) was added to a final concentration of 10 μmol/L during the last 2 h of treatment. BrdU incorporation was measured as described^19. Results are expressed as mean±SEM for 12 samples per condition from two independent experiments.

[5] = tested on: Human aortic smooth muscle cells (HASMC); assay: Cell counts of growth-arrested HASMC; format: cell-based; conditions: bFGF 10 ng/ml, flavopiridol 75 nmol/L, three days; bFGF alone 3-fold increase
Experimental: Cell culture—Human aortic smooth muscle cells (HASMC) were obtained from Clonetics and were cultured as previously described^18. Cells were used at passages 5-9. Prior to performing experiments, cells were growth-arrested at 80% confluence for 48 h with medium containing 0.2% fetal bovine serum. Cell counts—Growth-arrested HASMC grown to 50% confluence in 6-well plates were treated with or without flavopiridol (75 nmol/L) or bFGF (10 ng/ml). At intervals after treatment, cells were trypsinized and cell numbers determined using a hemocytometer.

[6] = tested on: Cdc2 and Cdk2; assay: Cdk activity (histone H1 kinase assay) in HASMC lysates; format: cell-based, human; conditions: flavopiridol 75 nmol/L pretreatment, 24 h
Experimental: Cdk activity—Quiescent HASMC were treated with agonists and inhibitors for 24 h and total cell lysates were prepared as described for Western blotting. The kinase assay was performed with a histone H1 kinase assay kit (Upstate Biotechnology) following the manufacturer's instructions. In brief, 10 μl of peptide inhibitors for protein kinase C (2 μmol/L) and protein kinase A (2 μmol/L), 100 μg cell lysate, 10 μl assay buffer and 10 μl of a mixture containing 75 μmol/L magnesium chloride, 500 μmol/L ATP and 1 μCi/ml [γ-^32P]ATP were mixed in a microcentrifuge tube. After incubation at 30° C. for 10 min, aliquots were pipetted onto phosphocellulose papers. The papers were washed in 0.75% phosphoric acid, followed by measurement of cpm in a scintillation counter (Beckman). Results are expressed as the mean±SEM for three samples and are representative of three independent experiments.

[7] = tested on: cyclin D1; assay: Western blot of cyclin D1 in HASMC; format: cell-based, human; conditions: flavopiridol 75 nmol/L pretreatment, 24 h
Experimental: as §1

[8] = tested on: PCNA; assay: Western blot of PCNA in HASMC; format: cell-based, human; conditions: flavopiridol 75 nmol/L pretreatment, 24 h
Experimental: as §1

[9] = tested on: Rb; assay: Western blot of Rb phosphorylation in HASMC; format: cell-based, human; conditions: flavopiridol 75 nmol/L, 24 h
Experimental: as §1

[10] = tested on: Human aortic smooth muscle cells (HASMC); assay: Trypan-blue exclusion viability; format: cell-based; conditions: flavopiridol 75 nmol/L, quiescent HASMC
Experimental: Trypan-blue exclusion—HASMC were grown in 5-cm dishes at low confluence and growth-arrested as described. Cells were treated with flavopiridol (75 nmol/L) or tumor necrosis factor-[…] (TNF-[…]; 50 ng/ml) for the indicated times. Following the removal of the medium, 0.4% trypan blue in phosphate-buffered saline was added to the dishes. After 5 min, the cells in the dishes were counted under the microscope. Blue cells were counted as nonviable cells.

[11] = tested on: rat carotid artery neointimal formation; conditions: for PCNA-positive nuclei in the neointima: 5 mg/kg orally
Experimental: Rat carotid injury model—Injury to the rat carotid artery was performed essentially as described^2. Adult male Sprague-Dawley rats (400-500 g, Zivic-Miller) were anesthetized with an intraperitoneal injection of ketamine ([…]) and xylazine (4 mg/kg). The left internal carotid was then cannulated with a 2F embolectomy catheter. The balloon was inflated with saline and withdrawn across the artery three times to produce a distending and denuding injury. The right carotid artery was uninjured and served as a control of injury for each animal. Immediately following recovery from anesthesia and for four additional days thereafter, rats were administered flavopiridol (5 mg/kg in water) or water by gavage in a blinded manner. […] At specified time points after carotid injury, rats were anesthetized as above and perfusion-fixed systemically with 4% paraformaldehyde in phosphate-buffered saline. Right and left carotid arteries were removed and distended by injection of 4% paraformaldehyde through the lumen, after which they were dehydrated and stored in 70% ethanol at 4° C. Immunohistochemistry was performed as previously described^18, using the monoclonal PCNA antibody and a polyclonal anti-human Cdk2 antibody (M2-G, Santa Cruz).
Image analysis—The extreme distal and proximal regions of each artery (approx. 500 μm) were removed. Ten intermediate cross-sections (8 μm each) taken 500 μm apart were analyzed from each artery. Slides were fixed and stained with hematoxylin and eosin as previously described^18. Using a Nikon Diaphot 300 microscope and a 4× objective, each cross-section was captured as a digital image using a Hamamatsu C5985 video camera and TCPro 2.41 (Coreco, Inc.). Medial and neointimal areas were determined using NIH Image software. Medial and neointimal boundaries were determined by one slide reviewer (A.M.) and verified in a blinded fashion by a second reviewer (C.P.). Lesion size was expressed as the neointima/media ratio. Results for each group were expressed as the mean±SEM.

[12] = doses below the toxic threshold, Phase I human studies; cited from earlier work
[13] = in vivo; cited from earlier work

COc1ccc(CNc2nc(N(CCO)CCO)nc3c2ncn3C(C)C)cc1 [CVT-313]
neointimal formation [1]: can also inhibit neointimal formation

COc1cccc(-c2cc(=O)c3ccccc3o2)c1N [PD98059, reference compound]
thrombin- and bFGF-induced phosphorylation of Erk1 and Erk2 ([2]; PD98059 30 μmol/L): blocked
thrombin- and bFGF-induced Erk1 and Erk2 activity (in-gel kinase) ([3]; PD98059 30 μmol/L pretreatment 60 min): inhibitable

CN1CC[C@H](c2c(O)cc(O)c3c(=O)cc(-c4ccccc4Cl)oc23)[C@H](O)C1 [flavopiridol, (−)-cis, -5,7-dihydroxy-2-(2-chlorophenyl)-8-[4-(3-hydroxy-1-methyl)piperidinyl]-4H-benzopyran-4-one]
inhibition of SMC proliferation [4]: near complete inhibition
bFGF-induced increase in cell number [5]: efficiently blocked
bFGF- and thrombin-induced increases in histone H1 kinase (cyclin-dependent kinase) activity [6]: totally blocked; also recorded: inhibited
bFGF- and thrombin-induced upregulation of cyclin D1 protein [7]: completely blocked
growth factor-induced increased expression of PCNA [8]: blocked
thrombin- and bFGF-induced hyperphosphorylation of Rb [9]: inhibited; also recorded: blocked
thrombin- and bFGF-induced phosphorylation of Erk1 and Erk2 ([2]; flavopiridol 75 nmol/L): no effect
thrombin- and bFGF-induced Erk1 and Erk2 activity (in-gel kinase) ([3]; flavopiridol 75 nmol/L): no effect
HASMC viability (trypan blue exclusion) [10]: does not decrease HASMC viability
HASMC viability (trypan blue exclusion) ([10]; listed as Flavopiridol): no effect
Cdk2-positive cells in the neointima vs untreated rats ([11]; 7 and 14 days after injury, 5 mg/kg by gavage): much less common
reduction of neointimal area ([11]; 7 days after injury, 5 mg/kg by gavage): 35%
PCNA-positive nuclei in the neointima ([11]; 7 days after injury, untreated 31.1±7.2%): 11.8±1.5%
reduction of neointimal area ([11]; 14 days after injury, 5 mg/kg by gavage): 39%
PCNA-positive nuclei in the neointima ([11]; 14 days after injury): 10.4±2.0%
signs of toxicity related to drug administration ([11]; rat, in vivo, 5 mg/kg): no overt signs of toxicity
median serum concentrations [12]: 425 nmol/L
biological half-life [13]: 2.5 hrs
